Test results published in patent publication US20100119599A1 (ARCHER PHARMACEUTICALS, INC., priority 2006, published 2010).
Structures can show the parent of a compound that is named as a salt. Where two headings read alike, the source gives them in different places.

Assays:
Aβ1-40 = experiment: Measurement of Aβ1-40 in culture medium of 7W WT APP751 CHO cells by ELISA; type: cell-based, Chinese hamster; settings: for activity at 5 µM: Cricetulus griseus, 5 μM test compound, CHO cells stably transfected with human APP751, culture medium, ELISA, control DMSO; for Aβ1-40 (% of control): CHO cells that overexpress APP751, zero = below the detection limit of the assay;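 for all read-outs here: 5 µM test compound but RI-coded compounds at 10 µM for 24 hours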
Aβ1-42 = experiment: Measurement of Aβ1-42 in culture medium of 7W WT APP751 CHO cells by ELISA; type: cell-based, Chinese hamster; settings: for activity at 5 µM: Cricetulus griseus, 5 μM test compound, CHO cells stably transfected with human APP751, culture medium, ELISA, control DMSO; for Aβ1-42 (% of control): CHO cells that overexpress APP751, zero = below the detection limit of the assay;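 for Aβ1-42 (% of control): 5 µM test compound but RI-coded compounds at 10 µM for 24 hours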
[1] = Table 1, 0 = no detectable amount
[2] = Table 1, 0 = no detectable amount, read-out: Aβ1-42 (% of control)

Row | SMILES | activity at 5 µM (Aβ1-40; [1]) [%] | activity at 5 µM (Aβ1-42; [2]) [%] | Aβ1-40 (% of control) (Aβ1-40) | Aβ1-42 (% of control) (Aβ1-42) | further results
1 | CCOC(=O)C1=C(C)NC2=C(C(=O)CCC2)C1c1cc2c(cc1[N+](=O)[O-])OCO2 (stereo not drawn) [ST212479, ethyl 2-methyl-4-(6-nitro(2H-benzo[d]1,3-dioxolan-5-yl))-5-oxo-1,4,6,7,8-pentahydroquinoline-3-carboxylate] | 60.2 | 29.3 |  |  | 
2 | N#Cc1c(S)[nH]c(C(F)(F)F)cc1=O [ST014350, 4-oxo-2-sulfanyl-6-(trifluoromethyl)hydropyridine-3-carbonitrile, 4-methylmorpholine salt] |  |  |  |  | activity at 5 µM (Aβ1-40; Table 3): 81.8%; activity at 5 µM (Aβ1-42; Table 3, read-out: Aβ-42 (% of control)): 46.1%
3 | CC1=C(C(=O)OCCc2ccccc2)C(c2ccc([N+](=O)[O-])cc2)C2=C(CC(C)(C)CC2=O)N1 (stereo not drawn) [ST014923, 2-phenylethyl 2,7,7-trimethyl-4-(4-nitrophenyl)-5-oxo-1,4,6,7,8-pentahydroquinoline-3-carboxylate] | 0 | 28.4 |  |  | 
4 | CC1=C(C(=O)Nc2ccc(Cl)cc2)C(c2ccccc2)C(C#N)=C(SCC(=O)Nc2ccc(C(C)C)cc2)N1 (stereo not drawn) [RI_54] |  |  | 45.89 % of control | 52.6 % of control | 
5 | CCc1cccc(NC(=O)CSC2=C(C#N)C(c3ccsc3)C(C(=O)Nc3ccccc3)=C(C)N2)c1 (stereo not drawn) [RI_44] |  |  | 93.1 % of control | 60.1 % of control | 
6 | CC1=C(C(=O)Nc2ccccc2)C(c2cccs2)C(C#N)=C(SCC(=O)Nc2cc(C)ccc2C)N1 (stereo not drawn) [RI_93] |  |  | 42.6 % of control | 58 % of control | 
7 | CC1=C(C(=O)Nc2ccccc2)C(c2cccs2)C(C#N)=C(SCC(=O)Nc2ccc(Br)cc2)N1 (stereo not drawn) [RI_71] |  |  | 34.5 % of control | 25.1 % of control | 
8 | CC1=C(C(=O)OC(C)C)C(c2cccnc2)C2=C(CCCC2=O)N1 (stereo not drawn) [ST013077, methylethyl 2-methyl-5-oxo-4-(3-pyridyl)-1,4,6,7,8-pentahydroquinoline-3-carboxylate] | 27.4 | 97.8 |  |  | 
9 | CCOC(=O)C1=C(C)NC2=C(C(=O)CCC2)C1c1ccccc1OCc1ccccc1 (stereo not drawn) [ST013216, ethyl 2-methyl-5-oxo-4-[2-(phenylmethoxy)phenyl]-1,4,6,7,8-pentahydroquinoline-3-carboxylate] | 0 | 88.8 |  |  | 
10 | COc1cc(CNC(=O)CSC2=C(C#N)C(c3cccs3)C(C(=O)Nc3ccccc3)=C(C)N2)cc(OC)c1OC (stereo not drawn) [RI_18] |  |  | 49.2 % of control | 44.1 % of control | 
11 | COCCOC(=O)C1=C(C)NC2=C(C(=O)CC(c3ccc(OC)cc3)C2)C1c1ccc2c(c1)OCO2 (stereo not drawn) [ST017094, 2-methoxyethyl 4-(2H-benzo[3,4-d]1,3-dioxolen-5-yl)-7-(4-methoxyphenyl)-2-methyl-5-oxo-1,4,6,7,8-pentahydroquinoline-3-carboxylate] | 68.9 | 73.8 |  |  | 
12 | COc1ccc(COC(=O)C2=C(C)NC3=C(C(=O)CCC3)C2c2ccc(Br)cc2)cc1 (stereo not drawn) [ST018645, (4-methoxyphenyl)methyl 4-(4-bromophenyl)-2-methyl-5-oxo-1,4,6,7,8-pentahydroquinoline-3-carboxylate] | 7.03 | 18 |  |  | 
13 | COc1ccc(C2C(C(=O)OCCc3ccccc3)=C(C)NC3=C2C(=O)CC(C)(C)C3)c(OC)c1 (stereo not drawn) [ST015090, 2-phenylethyl 4-(2,4-dimethoxyphenyl)-2,7,7-trimethyl-5-oxo-1,4,6,7,8-pentahydroquinoline-3-carboxylate] | 15.4 | 34.9 |  |  | 
14 | CC1=C(C(=O)OC2CCCCC2)C(c2ccccc2OCc2ccccc2)C2=C(CCCC2=O)N1 (stereo not drawn) [ST013271, cyclohexyl 2-methyl-5-oxo-4-[2-(phenylmethoxy)phenyl]-1,4,6,7,8-pentahydroquinoline-3-carboxylate] | 6.92 | 39.9 |  |  | 
15 | CC1=C(C(=O)OCCOc2ccccc2)C(c2ccc(C(C)C)cc2)C2=C(CCCC2=O)N1 (stereo not drawn) [ST052247, 2-phenoxyethyl 2-methyl-4-[4-(methylethyl)phenyl]-5-oxo-1,4,6,7,8-pentahydroquinoline-3-carboxylate] | 98 | 64.1 |  |  | 
